The structures appear in SMILES notation.

For data set [1] the following is noted: cited from earlier work.
Data set [2] in a line: Visual acuity (Snellen's chart) in patients with age-related macular degeneration. The settings on record: AMD patients.
The nature of data set [3]: Visual fields in a patient with retinitis pigmentosa. The settings on record: for improvement in visual field: gtts (i) ou bid.
The conditions of data set [4]: Sponsel et al., 1997; Harris et al., 1999; cited from earlier work.
Data set [5] in a line: Night vision of patients being treated for glaucoma. In kind it is in vivo, human.

For the compound `CCN[C@H]1C[C@H](C)S(=O)(=O)c2sc(S(N)(=O)=O)cc21` [dorzolamide], in data set [1] (Harris et al., 1996), the “capillary dye transit in macula and optic nerve head” value is “enhance capillary dye transit in macula and optic nerve head”. In addition, the retinal arteriovenous passage entry in data set [1] (Harris et al., 1999, 1996, 2001) was “accelerate retinal arteriovenous passage”. The “increase of ocular pulse amplitude” value in data set [1] (Schmidt et al., 1998) is given as 18-19%. The safety entry in data set [2] (gtts (i) bid) and in data set [3] (gtts (i) bid) was “very safe” each time. For the same compound, in data set [2] (gtts (i) bid in one eye, one month), the “improvement in visual acuity (one more line on Snellen's chart)” value is recorded as “Most patients demonstrated objective (and subjective) improvement in visual acuity in one month”. Besides, the “improvement in visual field” value is “marked improvement in visual field in the left eye” in data set [3] (five weeks) and “still more marked improvement in both eyes” in data set [3] (nine weeks). The contrast sensitivity entry in data set [4] is “enhance contrast sensitivity”. The perimetric light sensitivity result in data set [4] is “increase perimetric light sensitivity”. In data set [5], the night vision entry was “improved the night vision”.

The values above are taken from patent US20050038103A1, “Uses of dorzolamide” (priority 2003, published 2005).
